Assay results as given in patent US7648966B2, “Mannose-6-phosphonate compounds for the treatment of inflammatory diseases” (Pharmaxis Pty Limited, priority 2003, dated 2010).

How the values were obtained:
[1] = system: passively transferred adjuvant-induced arthritis; assay: Passively transferred adjuvant arthritis; format: in vivo, DA rats; settings: for swelling in the affected joints at the end of the treatment period: controls severe swelling
Experimental: The experiment in this Example was designed to study the effect of the agents of the present invention in vivo on a disease that requires T lymphocyte migration into a specific tissue (synovium). Male DA rats, 8 to 10 week old, were immunized with three 100 μl injections of CFA intradermally at the base of the tail. The CFA was prepared by mixing 8 mg/ml of M. butyricum (Difco Laboratories, USA) that had been ground to a fine powder using a mortar and pestle, in 85% light mineral oil (Sigma, USA) and 15% mannide monooleate (Sigma) and emulsifying this suspension, one part in one part saline. Thus, the final emulsion contained 4 mg/ml of M. butyricum. Ten days after immunization, the rats were euthanized and their spleens removed aseptically. A single cell suspension in lymphocyte culture medium with 10% FCS was prepared as described above and adjusted to a concentration of 2×10^6 cells/ml. Con A was added at a final concentration of 2 μg/ml. The cells were cultured at 37° C. in an atmosphere of 5% carbon dioxide for 72 hours. Groups of 4 or 5 DA rats, 6 to 8 weeks of age were anesthetized with diethyl ether and implanted sc on the flank with Alzet 2002 (“2 week delivery”) or Alzet 2001 (“1 week delivery”) mini-osmotic pumps (Alza Corp., Palo Alto Calif., USA). One treatment group received 1-(2,4,-diimethyl phenyl)-6-phosphono-mannoside in the one week delivery Alzet 2001 mini-osmotic pumps. The drug was delivered at a dose of 25 mg/kg/day. The control group for this experiment received identical mini-osmotic pumps containing normal saline. In a second experiment another group of DA rats received 1-(2,4,-diimethyl phenyl)-6-phosphono-mannoside in the “2 week delivery” Alzet 2002 mini-osmotic pumps. This drug was delivered at a dose of 37 mg/kg/day. Control animals for this group received saline delivered in identical mini-osmotic pumps. While the animals were recovering from anesthesia, the above cultured lymphocytes which had been harvested and washed twice in HBSS were resuspended in normal saline and injected iv (lateral tai vein) into recipient rats, each of which received 75-90×10^6 cells in 0.5 ml. After 5 to 8 days, a characteristic thickening and cutaneous hyperemia of the distal joints of the hind legs became clinically apparent in saline treated control animals. Disease severity was evaluated and graded in each group by daily measurement of the mediolateral widths of both ankle joints. The data were expressed as the mean of the change (compared with width prior to cell injection) in mediolateral ankle width expressed in millimeters (±standard error of the mean).

[2] = system: MBP-specific T lymphocyte cell lines migrating across rat brain endothelial cell monolayer; assay: Inhibition of T-lymphocyte migration across rat brain endothelial cell layer (Transwell, 51Cr-labeled cells); format: cell-based, Lewis rats; settings: Rattus norvegicus, T-cell; 10 mM in upper well; 6 hours; compared with negative control; read-out: % inhibition (±SEM) of T cell migration
Experimental: Preparation of Brain Endothelial Cells (ECs)
Vascular ECs were isolated from rat brain capillaries of 6 to 8 week old Lewis rats according to the method of Risau, W et al., 1990, J. Cell Biol. 110:1757-1766 (which is incorporated herein by reference). Colonies of ECs were purified from astroglial cells and pericytes using anti-Thy1.1-antibody and complement-mediated lysis to remove unwanted Thy1.1+ cells.
The EC colonies were grown, using conventional methods, in Dulbecco's Modified Eagle's Medium (DMEM)-high glucose, supplemented, with 20% fetal calf serum (FCS), glutamine, pyruvate, nonessential amino acids, HEPES buffer and antibiotics (kanamycin, amphotericin), and heparin (all from GIBCO). Cultures were supplemented with 150 μg/ml “endothelial growth supplement” from Collaborative Biomedical Products. Upon reaching confluence, EC cultures were washed with 0.2% EDTA in phosphate buffered saline (PBS), trypsinized (Trypsin-EDTA, 0.1% final concentration), washed and re-treated with anti-Thy1.1 antibody for 40 min, washed and incubated with complement sufficient to lyse all Thy1.1+ cells (Behringwerke, AG, Marburg, Germany) at room temperature.
ECs were then plated on Matrigel®-coated 6.5 mm Transwells, […] (Corning Costar Corporation, Cambridge, Mass.). Presence of ECs and confluence of the monolayer were checked by measuring the electrical resistance (World Precision Instruments, New Haven, U.S.A., model EVOM-G) and by staining with FITC-labeled phalloidin (Sigma).
Myelin Basic Protein (MBP)-Specific T Cell Lines
To study the effect of agents of the present invention on T lymphocyte migration, MBP-specific T lymphocyte cell lines were generated according to the method of Ben-Nun et al., Europ. J. Immunol. 11:195-199 (1981); incorporated herein by reference) starting with lymphocytes from the LNs of Lewis rats that had been immunized with MBP in complete Freund's adjuvant (CFA). These cells were used for migration studies during the first 4 days of their propagation in IL-2-containing medium, following MBP restimulation in the presence of antigen-presenting cells (irradiated spleen or thymus cells from normal Lewis rats).
These stimulated T lymphocytes were radiolabeled with ^51Cr (Na^51Cr04, 37 MBq/ml, Amersham, UK) for 30 minutes at 37° C. with occasional agitation, they were then washed three times with DMEM and placed into the upper chamber of the Transwells at 5×10^5 cells in 100 μl of “migration medium.” Test and control substance were included in the upper wells at final concentrations of 0.1, 1 and 10 mM. Cell migration was assessed visually by light microscopy to gauge progress of the experiment. The experiment was terminated after 6 hours, whereupon the undersurface of the membrane filters were rinsed twice with 100 μl of ice-cold PBS-0.2% EDTA and combined with the medium of the lower chamber of the well. The combined material was counted for radioactivity in a gamma counter (Packard Auto-Gamma 5650 (Downer's Grove Ill., USA) gamma counter. Each “treatment” group was run in triplicate (test agent, control agent (glucose 6-phosphate) and no treatment).
Inhibition values are in comparison with the negative control.

Cc1ccc(O[C@H]2O[C@H](CCP(=O)(O)O)[C@@H](O)[C@H](O)[C@@H]2O)c(C)c1
difference in disease status of treated versus control animals ([1]; 25 mg/kg/day, end of one week treatment): highly statistically significant difference | swelling in the affected joints at the end of the treatment period ([1]; 25 mg/kg/day, one week delivery Alzet 2001 pump): little swelling | difference in disease status of treated versus control animals ([1]; 37 mg/kg/day, end of two week treatment): highly statistically significant difference | swelling in the affected joints at the end of the treatment period ([1]; 37 mg/kg/day, two week delivery Alzet 2002 pump): little swelling | inhibition at 10000 µM [2]: 90 ± 4%
